From paper PMC6006475 (2016)

Assays:
[1] = system: c-MYC-(D) (DNA, G4) TGAGGGTGGGTAGGGTGGGTAA; assay: 1H NMR titration (imino region); details: 25 mM Tris-HCl, pH 7.4, 298 K, 100 µM DNA, binds minor conformation
[2] = system: c-MYC-(A) (DNA, G4) TGAGGGTGGGTAGGGTGGGTAA; assay: FRET melting; details: 0.2 µM BTC, SD ±5%
[3] = system: ds DNA (DNA, hairpin, HEG (hexaethylene glycol) linker between 10 and 11) TATAGCTATATATAGCTATA; assay: FRET melting; details: 1 µM BTC, highest tested
[4] = system: h-TELO-(A) (DNA, G4) GGGTTAGGGTTAGGGTTAGGG; assay: FRET melting; details: 0.4 µM BTC, SD ±5%
[5] = system: h-TELO-(D) (DNA, G4) GGGTTAGGGTTAGGGTTAGGG; assay: 1H NMR titration (imino region); details: 25 mM Tris-HCl, pH 7.4, 298 K, 100 µM DNA
[6] = K+ (50 mM potassium cacodylate), pH 7.4, pre-annealed
[7] = none (K+-free, MQ water), pH ~7

Q: `CN(C)CCCNC(=O)c1ccc(-n2cc(-c3ccc4[nH]c5ccc(-c6cn(-c7ccc(C(=O)NCCCN(C)C)cc7)nn6)cc5c4c3)nn2)cc1` was tested. Which binding ([1]; K+ (100 mM KCl)) did it give?
A: Its binding is “yes”.

Q: And the binding ([1]; none (K+-free))?
A: The binding was “yes”.

Q: What about the ΔTm [2, 6] of the same compound?
A: The ΔTm was 24.0 °C.

Q: And the ΔTm [2, 7]?
A: The ΔTm was 23.5 °C.

Q: And the ΔTm ([3]; K+ (50 mM potassium cacodylate), pH 7.4)?
A: The ΔTm was 3 °C.

Q: And the ΔTm [3, 7]?
A: Its ΔTm is 2.9 °C.

Q: What about the ΔTm [4, 6] of the same compound?
A: The ΔTm was 38.7 °C.

Q: And the ΔTm [4, 7]?
A: Its ΔTm is 38.5 °C.

Q: What about the binding ([5]; K+ (100 mM KCl), weak shift perturbations) of the same compound?
A: Its binding is “yes”.

Q: What about the binding ([5]; none (K+-free), partial folding promoted) of the same compound?
A: Its binding is “yes”.
